# According to BindingDB's records for doi:10.1021/jm9805642 (Pharmacia and Upjohn, 1999):
# Biological target: Cytosol aminopeptidase (Sus scrofa) (UniProt P28839)
# Assay: Inhibition against Leucyl aminopeptidase from pig kidney.
# Chain of Cytosol aminopeptidase (Sus scrofa) (P28839 whole entry, looked up): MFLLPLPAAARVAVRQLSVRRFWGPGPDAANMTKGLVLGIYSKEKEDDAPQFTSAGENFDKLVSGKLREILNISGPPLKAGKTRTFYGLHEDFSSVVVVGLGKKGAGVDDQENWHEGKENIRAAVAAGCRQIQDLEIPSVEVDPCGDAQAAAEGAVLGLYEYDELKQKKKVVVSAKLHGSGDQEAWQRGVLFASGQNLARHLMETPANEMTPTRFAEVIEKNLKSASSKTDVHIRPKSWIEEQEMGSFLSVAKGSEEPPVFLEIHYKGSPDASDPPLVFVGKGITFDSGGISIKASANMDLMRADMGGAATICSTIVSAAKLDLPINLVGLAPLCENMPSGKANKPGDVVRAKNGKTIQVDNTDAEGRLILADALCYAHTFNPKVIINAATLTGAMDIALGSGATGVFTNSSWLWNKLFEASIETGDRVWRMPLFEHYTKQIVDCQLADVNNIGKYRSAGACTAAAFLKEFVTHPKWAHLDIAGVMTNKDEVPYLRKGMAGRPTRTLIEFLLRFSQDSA
row,Compound,IC50
1,"C[C@H](NC(=O)[C@@H]1CCCN1C(=O)[C@@H]1CCCN1C(=O)[C@@H](O)[C@H](N)Cc1ccccc1)C(N)=O [(S)-1-[(S)-1-((2S,3R)-3-Amino-2-hydroxy-4-phenyl-butyryl)-pyrrolidine-2-carbonyl]-pyrrolidine-2-carboxylic acid ((S)-1-carbamoyl-ethyl)-amide]",0.3 µM
2,C[C@H](NC(=O)[C@@H]1CCCN1C(=O)[C@@H]1CC(O)CN1C(=O)[C@@H](O)[C@H](N)Cc1ccccc1)C(N)=O (stereo not given in full) [1-[1-(3-Amino-2-hydroxy-4-phenyl-butyryl)-4-hydroxy-pyrrolidine-2-carbonyl]-pyrrolidine-2-carboxylic acid (1-carbamoyl-ethyl)-amide],1.6 µM
3,"NC(=O)[C@@H]1CCCN1C(=O)[C@@H]1CCCN1C(=O)[C@@H](O)[C@H](N)Cc1ccccc1 [(S)-1-[(S)-1-((2S,3R)-3-Amino-2-hydroxy-4-phenyl-butyryl)-pyrrolidine-2-carbonyl]-pyrrolidine-2-carboxylic acid amide]",2.5 µM

# Second part, the molecule after the results:
row,IC50,Compound
1,> 1000 µM,C[C@H](NC(=O)[C@@H]1CCCN1C(=O)C1CCCCC1C(=O)NO)C(N)=O (stereo partly drawn) [(S)-1-(2-Hydroxycarbamoyl-cyclohexanecarbonyl)-pyrrolidine-2-carboxylic acid ((S)-1-carbamoyl-ethyl)-amide]
2,> 1000 µM,C[C@H](NC(=O)[C@@H]1CCCN1C(=O)C1CCCC1S)C(N)=O (stereo partly drawn) [(S)-1-(2-Mercapto-cyclopentanecarbonyl)-pyrrolidine-2-carboxylic acid ((S)-1-carbamoyl-ethyl)-amide]
